The values below come from article PMC9827040 (Blood Advances, 2022).

The target of one assay is CRBN (Homo sapiens, UniProt Q96SW2). As to the kind of experiment: CRBN-target-binding assay. The note with it: HTRF. (In TR-FRET formats the signal depends on donor and acceptor labels being close together.)
Assay [1] concerns CCL3 and CCL4 secretion by TMD-8 cells. Nature of the assay: CCL3 & CCL4 ELISA in anti-IgM stimulated TMD-8 cells. It counts as cell-based, human. The note with it: 10 nM for 24 hours, 10 μg/mL anti-IgM 8 hours. For orientation: ELISA stands for enzyme-linked immunosorbent assay.
Assay [2] concerns WT and mutant BTK (E41K, T474I, C481S, C481R, C481T, C481Y, C481F, L528W). As to the kind of experiment: WT or mutant BTK transiently expressed in HEK293 cells, immunoblotting. It is filed as cell-based. The note with it: HEK293, 0.1, 1 and 10 μM, 24 hours.
Another assay deals with TMD-8 BTK C481S cells. As to the kind of experiment: Cell proliferation, C481S BTK-overexpressing TMD-8 cells. It is filed as cell-based, human.
Assay [3] deals with CRBN neosubstrates (Ikaros, Helios, Aiolos, GSPT1, CK1-a). As to the kind of experiment: Immunoblotting of CRBN neosubstrates in hematological cell lines. It is filed as cell-based. The note with it: 100 nM, 24 or 72 hours.

Sequence of CRBN (Q96SW2 whole entry): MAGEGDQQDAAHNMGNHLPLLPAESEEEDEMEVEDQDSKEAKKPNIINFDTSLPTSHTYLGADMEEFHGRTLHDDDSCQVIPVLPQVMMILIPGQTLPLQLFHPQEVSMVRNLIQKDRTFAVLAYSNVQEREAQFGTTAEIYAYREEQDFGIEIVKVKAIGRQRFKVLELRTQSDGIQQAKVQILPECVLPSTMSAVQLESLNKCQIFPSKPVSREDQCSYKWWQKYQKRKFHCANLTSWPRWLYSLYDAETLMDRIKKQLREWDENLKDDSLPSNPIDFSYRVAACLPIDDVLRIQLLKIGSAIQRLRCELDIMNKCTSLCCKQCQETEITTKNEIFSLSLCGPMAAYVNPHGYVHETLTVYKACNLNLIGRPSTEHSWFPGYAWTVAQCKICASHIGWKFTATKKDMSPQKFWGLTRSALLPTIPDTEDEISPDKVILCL

Take `O=C(c1ccc(Oc2ccccc2)cc1Cl)c1c[nH]c2ncnc(N[C@@H]3CC[C@@H](CO)OC3)c12` [ARQ-531]: at CRBN, the “binding to CRBN” value was “did not bind to CRBN”. Besides, in assay [1], the “CCL3 or CCL4 secretion” value is recorded as “little or no effect”. In addition, the “BTK phosphorylation in C481S and E41K BTK mutants” value in assay [2] is listed as “substantially attenuated”.
For the molecule `Nc1ncnc2c1c(-c1ccc(Oc3ccccc3)cc1)nn2C1CCN(CCOCCOCC(=O)Nc2ccc3c(c2)C(=O)N(C2CCC(=O)NC2=O)C3=O)CC1` (centres unmarked) [MT-802], in assay [1], the “CCL3 or CCL4 secretion” value is “little or no effect”. Also, the “degradation of WT and mutant BTK” value in assay [2] was “can also degrade E41K, C481R, C481Y, C481T, and C481F BTK mutants”.
Regarding `CC#CC(=O)N1CCC[C@H]1c1nc(-c2ccc(C(=O)Nc3ccccn3)cc2)c2c(N)nccn12` [acalabrutinib], the “CCL3 or CCL4 secretion” value in assay [1] is recorded as “significantly abrogated CCL3 or CCL4 secretion”.
`C=CC(=O)N1CCC[C@@H](n2nc(-c3ccc(Oc4ccccc4)cc3)c3c(N)ncnc32)C1` [ibrutinib]: the “binding to CRBN” value at CRBN was “did not bind to CRBN”. For the same molecule, the “inhibition of proliferation of C481S BTK-overexpressing TMD-8 cells” value in the assay on TMD-8 BTK C481S cells is “resistance”. For the same molecule, the “CCL3 or CCL4 secretion” value in assay [1] was “significantly abrogated CCL3 or CCL4 secretion”.
On to `O=C1CCC(N2C(=O)c3ccccc3C2=O)C(=O)N1` (centres unmarked) [thalidomide], for which, in assay [3], the “change in neosubstrates of U2932 and WSU-WM” value is on record as “No significant change”; the “degradation of CRBN neosubstrates in any of the tested cell lines” value was “did not lead to any significant degradation”.
